What was measured:
Type in all cases: in vivo
Echinochloa oryzicola = assay: Herbicidal activity by paddy field soil treatment (Test Example 1); set-up: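 index 0 to 10 in 10% steps of herbicidal effect with 10 meaning complete death and 0 below 10%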; settings: 1000 g of effective component per hectare, evaluated on day 21 after the treatment, criteria of Table 72
Summary of the method: (§1)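 Seeds were sown in puddled paddy soil in pots flooded to 3 cm water depth; the next day a water-diluted wettable powder was applied to the water surface at 1000 g active ingredient/ha. Plants were grown in a greenhouse and herbicidal effect scored by graded criteria on day 21 after treatment.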

Scirpus juncoides Rocxb. = assay: as above; set-up: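 index 0 to 10 in 10% steps of herbicidal effect with 10 meaning complete death and 0 below 10%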; settings: applied on water surface, 1000 g of effective component per hectare, day 21 after the treatment
Summary of the method: as §1

Monochoria vaginalis = assay: as above; set-up: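 index 0 to 10 in 10% steps of herbicidal effect with 10 meaning complete death and 0 below 10%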; settings: 1000 g of effective component per hectare, evaluated on day 21 after the treatment, criteria of Table 72
Summary of the method: as §1

A. retroflexus [1] = assay: Herbicidal activity by field soil treatment (Test example 2); set-up: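 index 0 to 10 in 10% steps of herbicidal effect with 10 meaning complete death and 0 below 10%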; settings: 1000 g effective component per hectare, day 21 after the treatment
Summary of the method: (§2)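 Seeds were sown in field soil in 80 cm^2 pots and covered with soil. A water-diluted wettable powder was then sprayed onto the soil surface at 1000 liters per hectare, delivering 1000 g active ingredient per hectare. Plants grew in a greenhouse, and herbicidal effect was scored against set criteria 21 days after treatment.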

Indian millet [2] = assay: as above; set-up: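 index 0 to 10 in 10% steps of herbicidal effect with 10 meaning complete death and 0 below 10%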; settings: 1000 g effective component per hectare, day 21 after the treatment
Summary of the method: as §2

Echinochloa crus-galli [3] = assay: as above; set-up: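 index 0 to 10 in 10% steps of herbicidal effect with 10 meaning complete death and 0 below 10%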; settings: 1000 g effective component per hectare, day 21 after the treatment
Summary of the method: as §2

Setaria viridis = assay: Herbicidal activity by field foliage treatment (Test example 3); settings: 1000 g effective component per hectare, day 14 after the treatment;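 also: index 0 to 10 in 10% steps of herbicidal effect with 10 meaning complete death and 0 below 10%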
Summary of the method: (§3)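 Potted field-soil plants grown 2 weeks in a greenhouse were sprayed over the whole foliage with diluted wettable powder at 1000 L/ha, delivering 1000 g active ingredient per hectare. Herbicidal effect scored by visual criteria 14 days after treatment.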

A. retroflexus [4] = assay: as above; set-up: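 index 0 to 10 in 10% steps of herbicidal effect with 10 meaning complete death and 0 below 10%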; settings: 1000 g effective component per hectare, day 14 after the treatment
Summary of the method: (§4)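 Plants were grown from seed in field soil in a greenhouse for 2 weeks, then sprayed over the whole foliage with a water-diluted wettable powder at 1000 L/ha spray volume, delivering 1000 g active ingredient per hectare. Herbicidal effect was scored on day 14 after treatment.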

Indian millet [5] = assay: as above; set-up: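 index 0 to 10 in 10% steps of herbicidal effect with 10 meaning complete death and 0 below 10%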; settings: 1000 g effective component per hectare, day 14 after the treatment
Summary of the method: as §4

foxtail = assay: Herbicidal activity by field soil treatment (Test example 2); settings: 1000 g effective component per hectare, day 21 after the treatment;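 also: index 0 to 10 in 10% steps of herbicidal effect with 10 meaning complete death and 0 below 10%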
Summary of the method: as §2

Echinochloa crus-galli [6] = assay: Herbicidal activity by field foliage treatment (Test example 3); set-up: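 index 0 to 10 in 10% steps of herbicidal effect with 10 meaning complete death and 0 below 10%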; settings: 1000 g effective component per hectare, day 14 after the treatment
Summary of the method: as §3

Compound	Herbicidal effects index number, Echinochloa oryzicola (Echinochloa oryzicola)	herbicidal effect index, S. juncoides Rocxb. (Scirpus juncoides Rocxb.)	Herbicidal effects index number, Monochoria vaginalis (Monochoria vaginalis)	herbicidal effect index, Amaranthus retroflexus (A. retroflexus [1])	herbicidal effect index, Abutilon theophrasti (Indian millet [2])	herbicidal effect index, Echinochloa crus-galli (Echinochloa crus-galli [3])	herbicidal effect index, Setaria viridis (Setaria viridis)	herbicidal effect index, Amaranthus retroflexus (A. retroflexus [4])	herbicidal effect index, Abutilon theophrasti (Indian millet [5])	herbicidal effect index, Setaria viridis (foxtail)	herbicidal effect index, Echinochloa crus-galli (Echinochloa crus-galli [6])
Cc1ccc(C(F)(F)F)cc1-n1c(=O)c(C(=O)C2=C(O)CCCC2=O)nn(C)c1=O [I-284]	10	10	10	10	9	10	7	9	8	8	9
Cn1nc(C(=O)C2=C(O)CCCC2=O)c(=O)n(-c2cccc(Cl)c2)c1=O [I-52]	10	10	10	10	10	10	10	10	10	10	10
CCCCn1c(=O)c(C(=O)C2=C(O)CCCC2=O)nn(C)c1=O [I-5]	10	10	10	10	10	10	10	10	10	7	10
COc1ccc(-n2c(=O)c(C(=O)C3=C(O)CCCC3=O)nn(C)c2=O)cc1OC [I-93]	8	10	10	10	10	7	9	10	10	6	9
Cc1ccc(-n2c(=O)c(C(=O)C3=C(O)CCCC3=O)nn(C)c2=O)cn1 [I-289]	10	10	10	10	9	9	7	10	9	7	9
CC1CC(C)(C)C(=O)C(C(=O)c2nn(C)c(=O)n(-c3ccccc3)c2=O)=C1O (stereo not drawn) [VI-7]	10	10	10	10	10	10	10	10	10	10	10
Cn1nc(C(=O)C2=C(O)CCCC2=O)c(=O)n(-c2ccc(Cl)cc2Cl)c1=O [I-84]	10	10	10	10	10	9	10	10	10	9	9
CC(C)n1c(=O)c(C(=O)C2=C(O)CCCC2=O)nn(C)c1=O [I-4]	9	10	9	10	9	9	9	9	9	9	9
Cn1nc(C(=O)C2=C(O)CCCC2=O)c(=O)n(-c2ccccc2C#N)c1=O [I-72]	10	10	10	10	10	9	10	10	10	10	10
Cc1cccc(-n2c(=O)c(C(=O)C3=C(O)CCCC3=O)nn(C)c2=O)c1 [I-58]	10	10	10	10	10	10	10	10	10	8	10
C=CCn1c(=O)c(C(=O)C2=C(O)CCCC2=O)nn(C)c1=O [I-11]	10	10	10	10	9	10	9	10	9	7	9
Cc1ccc(-n2c(=O)c(C(=O)C3=C(O)CCCC3=O)nn(C)c2=O)cc1F [I-105]	10	10	10	10	9	9	7	10	10	7	10
Cn1nc(C(=O)C2=C(O)CCCC2=O)c(=O)n(C2CC2)c1=O [I-16]	9	10	9	10	9	9	9	10	9	9	9
Cc1cccc(-n2c(=O)c(C(=O)C3=C(O)CCCC3=O)nn(C)c2=O)c1Cl [I-127]	10	10	10	10	10	10	10	10	9	8	10
Cn1nc(C(=O)C2=C(O)CCCC2=O)c(=O)n(-c2c(F)cccc2F)c1=O [I-80]	10	10	10	10	9	9	7	10	9	9	10

— patent publication US8969554B2, “6-acyl-1,2,4-triazine-3,5-dione derivative and herbicides” (Kumiai Chemical Industry Co., Ltd., priority 2010, dated 2015)
